The target of this assay is T1, human glycine transporter-2 (GlyT2) (Homo sapiens, UniProt Q9Y345).
T1 construct: The entire coding region of the human GlyT2 cDNA was cloned into the mammalian expression vector pClNeo; expressed in transfected cells; host or cells: Cos-7 cells (African green monkey kidney, ATCC), stably transfected, G418-selected; vector pClNeo
T1 sequence (Q9Y345 1-797): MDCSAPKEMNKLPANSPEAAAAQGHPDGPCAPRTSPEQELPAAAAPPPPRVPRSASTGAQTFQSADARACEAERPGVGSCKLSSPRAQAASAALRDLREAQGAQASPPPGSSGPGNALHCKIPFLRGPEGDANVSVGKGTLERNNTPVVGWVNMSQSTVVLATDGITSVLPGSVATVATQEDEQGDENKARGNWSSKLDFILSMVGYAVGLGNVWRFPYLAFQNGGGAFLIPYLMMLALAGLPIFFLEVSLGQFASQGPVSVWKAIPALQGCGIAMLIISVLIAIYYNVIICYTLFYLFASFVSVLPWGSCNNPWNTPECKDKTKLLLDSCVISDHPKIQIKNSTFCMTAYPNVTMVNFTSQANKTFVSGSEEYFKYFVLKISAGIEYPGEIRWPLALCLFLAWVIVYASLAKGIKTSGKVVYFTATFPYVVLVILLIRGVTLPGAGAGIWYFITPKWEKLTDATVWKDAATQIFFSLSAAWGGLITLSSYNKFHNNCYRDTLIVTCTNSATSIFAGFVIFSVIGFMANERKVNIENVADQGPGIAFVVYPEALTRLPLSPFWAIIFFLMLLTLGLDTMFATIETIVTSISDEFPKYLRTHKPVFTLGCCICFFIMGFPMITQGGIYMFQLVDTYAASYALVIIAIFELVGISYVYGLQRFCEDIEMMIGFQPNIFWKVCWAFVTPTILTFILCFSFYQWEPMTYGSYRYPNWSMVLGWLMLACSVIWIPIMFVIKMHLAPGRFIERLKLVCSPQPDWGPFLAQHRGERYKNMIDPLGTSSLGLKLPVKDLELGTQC
The assay can be described thus: Inhibition of [14C]-glycine uptake in COS-7 cells transfected with human GlyT2. The conditions noted are these: Table 2, 20 μM, 2 h at 37° C., Cos-7 cells stably transfected with human GlyT2. Format: cell-based. The protocol:
GlyT2 antagonist activity of representative compounds of the invention was determined in accordance with the assay described in the Examples and by measuring the ability of compounds to inhibit the uptake of [^14C]-glycine in COS-7 cells transfected with the human glycine transporter-2 (GlyT2). The GlyT2 antagonist activities of these representative compounds are set forth hereinafter in Table 1.
Cos-7 cells (African green monkey, kidney) from American Type Culture Collection were grown in DMEM supplemented with 10% fetal bovine serum. The entire coding region of the human GlyT2 cDNA was cloned into the mammalian expression vector pClNeo, and then stably transfected into Cos-7 cells. Transfection was performed essentially as described by T. W. Lovenberg et al. (Mol. Pharmacol. 1999, 55:1101–1107): Briefly, cells were grown to 70–80% confluence, removed from the plate with trypsin, and pelleted in a clinical centrifuge. The pellet was resuspended in 400 μL complete medium and transferred to an electroporation cuvette with a 0.4 cm gap between the electrodes (Bio-Rad, 165–2088). One microgram of supercoiled GlyT2 cDNA was added to the cells, and the suspension was mixed. The voltage for the electroporation was set at 0.25 kV, and the capacitance was set at 960 μF. After electroporation, the cuvette contents were diluted to 10 mL with complete medium, and 0.5 mL, 1.0 mL, 2.0 mL and remainder (˜6.5 mL) portions were plated onto four 10-cm dishes. The cells were incubated 24 h before adding 600 μg/mL G418. Colonies that survived selection were isolated and tested for GlyT2 expression.
The day before the assay, the GlyT2 expressing cells were plated into 96-well scintillating microplates (Amersham, RPNQ 0160) at a density of approximately 20,000 cells per well. Cells were grown overnight at 37° C. in 5% CO2 and then washed once with 37° C. HEPES buffered saline (HBS: 150 mM NaCl, 20 mM HEPES, 1 mM CaCl2, 10 mM glucose, 5 mM KCl, 1 mM MgCl2; pH 7.4). Eighty microliters of 37° C. HBS was subsequently added to each well. Test solutions of GlyT2 inhibitors were prepared in HBS from DMSO stock solutions, and 5 μL of test solution was added to each test well. Total transport and non-specific background were determined by adding 5 μL HBS or 5 μL 2 M glycine, respectively, to the appropriate control wells. Plates were then left at rt for 5 min before the addition of 20 μL of 100 μM ^14C-glycine (NEN, NEC 048H) to each well for a final concentration of 20 μM. Plates were incubated for 2 h at 37° C. with 5% CO2. After 2 h the reaction mixtures were removed by aspiration, and the plates were washed once with ice-cold HBS. Plates were sealed with TopSeal (Packard, 6005185) and counted on a Packard TopCount® scintillation counter.

Here are results for 9 molecules from patent publication US7202269B2, “GlyT2 modulators” (Janssen Pharmaceutica N.V., priority 2003, dated 2007).

In turn, `NCCNC(=O)CC[C@H](Cc1ccccc1)NC(=O)Nc1ccc(Oc2ccccc2)cc1` [Example 111, (R)-4-[3-(4-Phenoxy-phenyl)-ureido]-5-phenyl-pentanoic Acid (2-amino-ethyl)-amide] gave an IC50 of 500 nM.

In turn, `O=C(Nc1cccc(Oc2ccccc2)c1)N[C@@H](Cc1ccccc1)C(=O)NCCCN1CCCC1` [Example 122, (S)-2-[3-(3-Phenoxy-phenyl)-ureido]-3-phenyl-N-(3-pyrrolidin-1-yl-propyl)-propionamide] showed an IC50 of 440 nM. Then `O=C(Nc1ccc(-c2ccccc2)cc1)N[C@@H](Cc1cccnc1)C(=O)NCCCN1CCCC1` [Example 142, (S)-2-(3-Biphenyl-4-yl-ureido)-3-pyridin-3-yl-N-(3-pyrrolidin-1-yl-propyl)-propionamide], with 685 nM; and `O=C(Nc1ccc(-c2ccccc2)cc1)NC(C(=O)NCCN1CCCC1)(c1ccccc1)c1ccccc1` [Example 143, 2-(3-Biphenyl-4-yl-ureido)-2,2-diphenyl-N-(2-pyrrolidin-1-yl-ethyl)-acetamide], with 8000 nM. Molecule `CC(C)[C@@H](CC(=O)NCCN(C(C)C)C(C)C)NC(=O)Nc1ccc(-c2ccccc2)cc1` [Example 146, (R)-3-(3-Biphenyl-4-yl-ureido)-4-methyl-pentanoic Acid (2-diisopropylamino-ethyl)-amide] gave an IC50 of 595 nM. The value for `O=C(Nc1cccc(-c2ccccc2)c1)N[C@@H](Cc1ccccc1)C(=O)NCCCN1CCCC1` [Example 150, (S)-2-(3-Biphenyl-3-yl-ureido)-3-phenyl-N-(3-pyrrolidin-1-yl-propyl)-propionamide] was 998 nM; that for `NCCCNC(=O)/C=C/[C@H](Cc1ccccc1)NC(=O)Nc1ccc(-c2ccccc2)cc1` [Example 152, (E)-(S)-4-(3-Biphenyl-4-yl-ureido)-5-phenyl-pent-2-enoic Acid (3-amino-propyl)-amide] was 3160 nM; that for `O=C(Nc1ccc(Oc2ccccc2)cc1)N[C@H](CNCCN1CCCC1)Cc1ccccc1` [Example 157, 1-[(S)-1-Benzyl-2-(2-pyrrolidin-1-yl-ethylamino)-ethyl]-3-(4-phenoxy-phenyl)-urea] was 181 nM. `O=C(Nc1ccc(-c2ccccc2)cc1)N[C@@H](CCCNCCN1CCCC1)Cc1ccccc1` [Example 158, 1-[(S)-1-Benzyl-4-(2-pyrrolidin-1-yl-ethylamino)-butyl]-3-biphenyl-4-yl-urea] had an IC50 of 340 nM. This IC50 is about 1.9-fold higher than that of the molecule before.
